Assay results: ChEMBL document CHEMBL4422630, “Identification of substituted 5-membered heterocyclic compounds as potential anti-leukemic agents” (Eur J Med Chem, 2019)
pEC50: −log10 of the molar value. Active and inactive are the calls of the source. The calls are words filed in the database; no cut-off is given here.

Key:
B-ALL [1] = assay: Antiproliferative activity against mouse B-ALL cells expressing wild type BCR-ABL assessed as reduction in cell viability after 72 hrs by CellTiter-Glo assay; type: functional, cell-based
B-ALL [2] = assay: Antiproliferative activity against mouse B-ALL BCR-ABL double knockout cells assessed as reduction in cell viability after 72 hrs by CellTiter-Glo assay; type: functional, cell-based
NALM-6 = assay: Antiproliferative activity against human NALM6 assessed as reduction in cell viability after 72 hrs by CellTiter-Glo assay; type: functional, cell-based; conditions: NALM-6, 72 h
UoC-B1 = assay: Antiproliferative activity against human UOCB1 assessed as reduction in cell viability after 72 hrs by CellTiter-Glo assay; type: functional, cell-based; conditions: UoC-B1, 72 h
KOPN-8 [3] = assay: Antiproliferative activity against human KOPN8 assessed as reduction in cell viability after 72 hrs by CellTiter-Glo assay; type: functional, cell-based; conditions: KOPN-8, 72 h
SUP-B15 [4] = assay: Antiproliferative activity against human SUP-B15 assessed as reduction in cell viability after 72 hrs by CellTiter-Glo assay; type: functional, cell-based; conditions: SUP-B15, 72 h
MV4-11 = assay: Antiproliferative activity against human MV411 assessed as reduction in cell viability after 72 hrs by CellTiter-Glo assay; type: functional, cell-based; conditions: MV4-11, 72 h
K562 = assay: Antiproliferative activity against human K562 assessed as reduction in cell viability after 72 hrs by CellTiter-Glo assay; type: functional, cell-based; conditions: K562, 72 h
[5] = Therapeutic index, ratio of EC50 for human BJ cells to EC50 for mouse B-ALL cells expressing wild type BCR-ABL; type: toxicity; conditions: human BJ cells versus mouse B-ALL cells expressing wild type BCR-ABL; read-out: Ratio EC50
BJ = assay: Antiproliferative activity against human BJ assessed as cell viability after 72 hrs by CellTiter-Glo assay; type: functional, cell-based
[6] = Half life in mouse microsomes; type: ADME, Microsome
[7] = Intrinsic clearance in mouse microsomes; type: ADME, Microsome
[8] = Half life in human microsomes; type: ADME, Microsome
[9] = Intrinsic clearance in human microsomes; type: ADME, Microsome
[10] = Half life in simulated gastric fluid; type: ADME
[11] = Permeability of compound at pH 7.4 by PAMPA; type: ADME; conditions: read-out: Peff
[12] = Apparent permeability of compound form apical to basolateral side in human Caco2 cells; type: ADME, cell-based; conditions: Caco-2
[13] = Apparent permeability of compound form basolateral to apical side in human Caco2 cells; type: ADME, cell-based; conditions: Caco-2
[14] = Efflux ratio of apparent permeability across basolateral to apical side over apical to basolateral side in human Caco2 cells; type: ADME, cell-based; conditions: Caco-2
[15] = Protein binding in mouse plasma; type: ADME, cell-free; conditions: read-out: PPB (converted)
[16] = Protein binding in human plasma; type: ADME, cell-free; conditions: read-out: PPB (converted)
[17] = Half life in mouse plasma; type: ADME, cell-free
[18] = Half life in human plasma; type: ADME, cell-free
SUP-B15 [19] = assay: Induction of apoptosis in human SUP-B15 cells assessed as increase in caspase 3/7 activity after 24 hrs by caspase-Glo 3/7 reagent based luminescence assay; type: functional, cell-based
SUP-B15 [20] = assay: Induction of apoptosis in human SUP-B15 cells assessed as decrease in cell viability at […] after 24 hrs by ApoTox-Glo triplex assay; type: functional, cell-based
SUM149PT = assay: Cytotoxicity against human SUM149 cells at 1 uM after 24 hrs by propidium iodide staining-based fluorescence assay relative to control; type: functional, cell-based
MDA-MB-231 [21] = assay: Cytotoxicity against human MDA-MB-231 cells up to 30 uM after 24 hrs by propidium iodide staining-based fluorescence assay; type: functional, cell-based
KOPN-8 [22] = assay: Induction of apoptosis in human KOPN8 cells assessed as decrease in cell viability at 5 uM after 24 hrs by Annexin V/propidium iodide staining-based flow cytometric analysis; type: functional
SUP-B15 [23] = assay: Induction of apoptosis in human SUP-B15 cells assessed as decrease in cell viability at 5 uM after 24 hrs by Annexin V/propidium iodide staining-based flow cytometric analysis; type: functional
KOPN-8 [24] = assay: Cell cycle arrest in human KOPN8 cells assessed as reduction in accumulation of cells at G1/G0 phase at 5 uM after 24 hrs by propidium iodide staining-based flow cytometric analysis; type: functional
KOPN-8 [25] = assay: Cell cycle arrest in human KOPN8 cells assessed as increase in accumulation of cells at S phase at 5 uM after 24 hrs by propidium iodide staining-based flow cytometric analysis; type: functional
[26] = Permeability of compound at pH 7.4 assessed as drug retention by PAMPA; type: ADME
SUP-B15 [27] = assay: Cytotoxicity in human SUP-B15 cells assessed as decrease in cell viability after 24 hrs by bis-AAF-RF110 dye based assay; type: functional
B-ALL [28] = assay: Induction of apoptosis in mouse B-ALL BCR-ABL double knockout cells assessed as increase in caspase 3/7 activity after 24 hrs by caspase-Glo 3/7 reagent based luminescence assay; type: functional, cell-based
MDA-MB-231 [29] = assay: Cytotoxicity against human MDA-MB-231 cells at 30 uM after 24 hrs by propidium iodide staining-based fluorescence assay; type: functional, cell-based
SUP-B15 [30] = assay: Induction of apoptosis in human SUP-B15 cells assessed as late apoptotic cells level after 24 hrs by Annexin V and propidium iodide staining based flow cytometry (reference value: 83%); type: functional
SUP-B15 [31] = assay: Induction of apoptosis in human SUP-B15 cells assessed as late apoptotic cells level after 24 hrs by Annexin V and propidium iodide staining based flow cytometry (reference value: 13.5%); type: functional
KOPN-8 [32] = assay: Induction of apoptosis in human KOPN8 cells assessed as late apoptotic cells level after 24 hrs by Annexin V and propidium iodide staining based flow cytometry (reference value: 96.4%); type: functional
KOPN-8 [33] = assay: Induction of apoptosis in human KOPN8 cells assessed as late apoptotic cells level after 24 hrs by Annexin V and propidium iodide staining based flow cytometry (reference value: 2%); type: functional

## c1ccc2[nH]c(-c3ccc(-c4nc5ccccc5[nH]4)nc3)nc2c1
B-ALL [1]
  pEC50: 5.10
B-ALL [2]
  pEC50: 4.47
NALM-6
  pEC50: 5.61
UoC-B1
  pEC50: < 4.36
KOPN-8 [3]
  pEC50: 5.75
SUP-B15 [4]
  pEC50: 5.74
MV4-11
  pEC50: 4.86
K562
  pEC50: 5.13
[5]
  selectivity ratio: > 5
BJ
  pEC50: < 4.36

## NC(=O)c1sccc1Nc1[nH]c(Nc2cccc(OC(F)(F)F)c2)nc2nncc1-2
B-ALL [1]
  pEC50: 5.50
B-ALL [2]
  pEC50: 4.84
NALM-6
  pEC50: 8.30
UoC-B1
  pEC50: 4.89
KOPN-8 [3]
  pEC50: 4.88
SUP-B15 [4]
  pEC50: < 4.36
[5]
  selectivity ratio: 5
BJ
  pEC50: 4.77

## CS(=O)(=O)c1ccc(-c2cccc3c2OC(CNC(=O)c2ccccc2F)C3)cc1 (stereo not drawn)
B-ALL [1]
  pEC50: 5.05
B-ALL [2]
  pEC50: 4.44
NALM-6
  pEC50: 5.76
UoC-B1
  pEC50: < 4.36
KOPN-8 [3]
  pEC50: < 4.36
SUP-B15 [4]
  pEC50: < 4.36
[5]
  selectivity ratio: > 5
BJ
  pEC50: < 4.36

## O=C(Cc1ccccc1)Nc1ccc(-c2nc3cc(NC(=O)Cc4ccccc4)ccc3[nH]2)cc1
B-ALL [1]
  pEC50: 6.20
B-ALL [2]
  pEC50: 6.11
NALM-6
  pEC50: 5.37
UoC-B1
  pEC50: < 4.36
KOPN-8 [3]
  pEC50: 6.74
SUP-B15 [4]
  pEC50: 6.57
MV4-11
  pEC50: 6.15
K562
  pEC50: < 5.00
[5]
  selectivity ratio: 13
BJ
  pEC50: 5.08
[6]
  half-life: 5.44 h
[7]
  CLint scaled: 10.5 mL/min/kg
[8]
  half-life: 3.56 h
[9]
  CLint scaled: 5.85 mL/min/kg
[10]
  half-life: > 48 h
[11]
  Papp: 204 ×10⁻⁶ cm/s
[12]
  Papp A→B: 0.206 ×10⁻⁶ cm/s
[13]
  Papp B→A: 4.13 ×10⁻⁶ cm/s
[14]
  efflux ratio: 20.1
[15]
  fraction unbound: 0.002
[16]
  fraction unbound: 0.003
[17]
  half-life: > 48 h
[18]
  half-life: > 48 h
SUP-B15 [19]
  Activity: Active
SUP-B15 [20]
  Activity: Active
SUM149PT
  Activity: Active
MDA-MB-231 [21]
  Activity: inactive
KOPN-8 [22]
  Activity: Active
SUP-B15 [23]
  Activity: Active
KOPN-8 [24]
  Activity: Active
KOPN-8 [25]
  Activity: Active
[26]
  permeability: 74.6%
SUP-B15 [27]
  Activity: Active
B-ALL [28]
  Activity: inactive
MDA-MB-231 [29]
  Activity: Active
SUP-B15 [30]
  Activity: 24.2%
SUP-B15 [31]
  Activity: 18.6%
KOPN-8 [32]
  Activity: 80.1%
KOPN-8 [33]
  Activity: 18.5%

## CCCSc1ccc2nc(NC(=O)OC)[nH]c2c1 [ALBENDAZOLE]
[11]
  Papp: 284 ×10⁻⁶ cm/s
[26]
  permeability: 44.1%

## COc1ccc(O)c(C(=O)NCCc2ccc(-c3cnc(C)s3)cc2)c1
B-ALL [1]
  pEC50: 5.02
B-ALL [2]
  pEC50: 4.64
NALM-6
  pEC50: 6.00
UoC-B1
  pEC50: 4.61
KOPN-8 [3]
  pEC50: 4.44
SUP-B15 [4]
  pEC50: < 4.36
MV4-11
  pEC50: < 5.00
BJ
  pEC50: 5.08

## CC[C@]1(O)C[C@@H]2CN(CCc3c([nH]c4ccccc34)[C@@](C(=O)OC)(c3cc4c(cc3OC)N(C)[C@H]3[C@@](O)(C(=O)OC)[C@H](OC(C)=O)[C@]5(CC)C=CCN6CC[C@]43[C@@H]65)C2)C1 [VINBLASTINE]
[12]
  Papp A→B: 0.621 ×10⁻⁶ cm/s
[13]
  Papp B→A: 13.1 ×10⁻⁶ cm/s
[14]
  efflux ratio: 21.1

## COc1ccc(O)c(-c2cc(-c3ccc(Cl)cc3)[nH]n2)c1
B-ALL [1]
  pEC50: 5.09
B-ALL [2]
  pEC50: 4.56
NALM-6
  pEC50: < 4.66
UoC-B1
  pEC50: 4.98
KOPN-8 [3]
  pEC50: 5.85
SUP-B15 [4]
  pEC50: 5.28
MV4-11
  pEC50: 6.19
[5]
  selectivity ratio: > 5
BJ
  pEC50: < 4.36

## CNC(=C[N+](=O)[O-])NCCSCc1ccc(CN(C)C)o1 [RANITIDINE]
[26]
  permeability: 0%

## COc1ccc(-c2[nH]nc(C)c2-c2ccc(OC)c(O)c2)c(O)c1
B-ALL [1]
  pEC50: 5.07
B-ALL [2]
  pEC50: 4.54
NALM-6
  pEC50: < 4.66
UoC-B1
  pEC50: 5.21
KOPN-8 [3]
  pEC50: 4.46
SUP-B15 [4]
  pEC50: < 4.36
[5]
  selectivity ratio: > 5
BJ
  pEC50: < 4.36

## O=C(O)CCCc1ccc(N(CCCl)CCCl)cc1 [CHLORAMBUCIL]
[10]
  half-life: 15.3 h

## COc1cc(-c2cc3ccccc3[nH]2)[nH]c1/C=C1\N=C(C)C=C1C
B-ALL [1]
  pEC50: 5.91
B-ALL [2]
  pEC50: 4.90
NALM-6
  pEC50: 5.97
UoC-B1
  pEC50: 5.82 to 5.83
KOPN-8 [3]
  pEC50: 4.83
SUP-B15 [4]
  pEC50: 4.59
[5]
  selectivity ratio: 7
BJ
  pEC50: 5.06

## CCN(CC)c1ccc(-n2cnnc2-c2cccc(O)c2)cc1
B-ALL [1]
  pEC50: 5.69
B-ALL [2]
  pEC50: < 4.31
NALM-6
  pEC50: 5.97
UoC-B1
  pEC50: 5.75
KOPN-8 [3]
  pEC50: < 4.31
SUP-B15 [4]
  pEC50: < 4.31
MV4-11
  pEC50: 6.07
K562
  pEC50: 5.97
[5]
  selectivity ratio: > 24
BJ
  pEC50: < 4.31

## O=C(c1cc(-c2csc(-c3ccc(O)cc3)n2)c[nH]1)N1CCCC1
B-ALL [1]
  pEC50: 5.40
B-ALL [2]
  pEC50: < 4.36
NALM-6
  pEC50: < 4.36
UoC-B1
  pEC50: < 4.36
KOPN-8 [3]
  pEC50: < 4.36
SUP-B15 [4]
  pEC50: < 4.36
[5]
  selectivity ratio: > 11
BJ
  pEC50: < 4.36

## NC(=O)N1c2ccccc2C=Cc2ccccc21 [CARBAMAZEPINE]
[11]
  Papp: 266 ×10⁻⁶ cm/s
[12]
  Papp A→B: 52.4 ×10⁻⁶ cm/s
[13]
  Papp B→A: 41.8 ×10⁻⁶ cm/s
[14]
  efflux ratio: 0.8
[26]
  permeability: 21.9%

## COc1ccc(O)c(-c2cc(-c3cc(Cl)ccc3O)[nH]n2)c1
B-ALL [1]
  pEC50: 5.31
B-ALL [2]
  pEC50: 4.95
NALM-6
  pEC50: 8.30
UoC-B1
  pEC50: 4.87
KOPN-8 [3]
  pEC50: 4.80
SUP-B15 [4]
  pEC50: < 4.36
[5]
  selectivity ratio: 5
BJ
  pEC50: 4.60

## CC1CC(OC(=O)C(O)c2ccccc2)CC(C)(C)N1C (stereo not drawn) [EUCATROPINE]
[17]
  half-life: 2.11 h
[18]
  half-life: 0.42 h
